Assay results from patent US9040553B2, “Phenoxyisobutyric acid compounds and method of synthesis” (CELL VIABLE CORPORATION, priority 2010, dated 2015).

Molecular target: BSA (Bos taurus, UniProt P02769)
Test: BSA glycation inhibition (glucose incubation, SDS gel/PVDF blot, periodic acid-Schiff staining)
Type: biochemical
Settings: BSA incubated with glucose and compound at 37° C. for 5 weeks; periodic acid-Schiff base staining of blot
Description: Compound No. 1 was tested for glycation activity according to the following protocol:
BSA was incubated in the presence of glucose and Compound No. 1 at 37° C. for 5 weeks. Aliquots of 2 μg protein were run on an SDS gel and transferred to PVDF membrane—the same procedure as for a western blot. The membrane was then processed to identify glycoprotein content by the periodic acid-Schiff base method. The positive reaction is pink, and glycation also shifts the molecular weight so the band migrates more slowly down the gel (higher position on the blot). […] Amimoguanadine was used as a control Reduced staining is an indication of glycation inhibition.

Sequence of BSA (P02769 25-607): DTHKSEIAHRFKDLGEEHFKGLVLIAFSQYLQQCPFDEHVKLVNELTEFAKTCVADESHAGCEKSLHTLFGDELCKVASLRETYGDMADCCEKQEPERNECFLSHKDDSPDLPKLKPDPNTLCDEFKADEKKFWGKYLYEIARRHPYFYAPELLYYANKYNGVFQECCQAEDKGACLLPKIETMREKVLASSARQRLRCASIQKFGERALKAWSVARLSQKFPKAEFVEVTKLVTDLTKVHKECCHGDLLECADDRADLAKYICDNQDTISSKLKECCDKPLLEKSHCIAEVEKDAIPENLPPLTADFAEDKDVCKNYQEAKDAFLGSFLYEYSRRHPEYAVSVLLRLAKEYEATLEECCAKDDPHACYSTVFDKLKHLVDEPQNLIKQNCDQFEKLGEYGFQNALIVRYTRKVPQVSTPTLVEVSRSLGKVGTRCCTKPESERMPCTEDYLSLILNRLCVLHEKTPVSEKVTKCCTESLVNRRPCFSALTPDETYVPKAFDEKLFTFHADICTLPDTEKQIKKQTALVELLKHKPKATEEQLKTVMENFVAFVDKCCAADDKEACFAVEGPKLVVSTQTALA

- glycation inhibition (reduced glycoprotein staining): found to inhibit glycation
Substance: 3,3′-dichloro-1,1′-diphenyl-4,4′-diureidophenoxyisobutyric acid [Compound No. 1]
